Holding throughout (format): cell-based
One series deals with T1, human Nav1.8 (Homo sapiens, UniProt Q9Y5Y9).
T1 construct: host or cells: HEK293
The series is described as follows: Two pulse assay protocol, Nav1.8. To be noted: peak current. On the procedure: (§1) In vitro Na+ Current Inhibition Assays were performed by Eurofins Discovery (St Charles, MO). All compound functional activity determinations were determined through electrophysiological analyses of Na+ currents in HEK293 cells expressing a stably transfected Na+ channel (human Nav1.1, 1.2, 1.3, 1.5, 1.6, 1.7, or 1.8). After harvesting with Accutase cells are maintained in serum free medium at room temperature prior to electrophysiological recording utilizing the QPatch HT automated whole-cell patch-clamp platform (Sophion Bioscience, Woburn MA). Stock solution aliquots of the test compound are prepared in DMSO at 300× the final assay concentrations, and stored at −20° C. until the day of assay. On the day of the assay, an aliquot of the stock solution is thawed and diluted into external solution (137 mM NaCl, 4 mM KCl, 1 mM MgCl2, 1.8 mM CaCl2, 10 mM HEPES, 10 mM Glucose (pH 7.3, titrated with 10M NaOH) to make final test concentrations. A final concentration of 0.33% DMSO is maintained for each concentration of the assay compounds. Internal solution for recordings of Na+ consist consists of 100 mM CsF, 45 mM CsCl, 5 mM NaCl, 10 mM HEPES, 5 mM EGTA (pH 7.3, titrated with 1M CsOH).
(§2) Two pulse assay protocol for human Nav1.1, 1.2, 1.3, 1.5, 1.6, 1.7, and 1.8 channels. Mammalian cultured cells expressing the indicated human Nav1.1, 1.2, 1.3, 1.5, 1.6, 1.7 or 1.8 channels were assayed using the The QPatch HT (Sophion Bioscience, Woburn MA) automated system with an intracellular solution (mM) of 100 CsF, 45 CsCl, 5 NaCl, 10 HEPES, 5 EGTA (pH 7.3, titrated with 1M CsOH) and extracellular solution (mM) of 137 NaCl, 4 KCl, 1 MgCl2, 1.8 CaCl2, 10 HEPES, 10 Glucose (pH 7.3, titrated with 10M NaOH). Onset and steady state block of the sodium channel was measured using a pulse pattern, repeated every 20 seconds (s) from a holding potential of −120 mV for 100 ms, and then pulsed to 0 mV for 500 ms to inactivate the Na channels and facilitate inactivated state-dependent binding of the test compounds. The cell membranes were then stepped back to −120 mV for 10 ms to recover from inactivation into resting or closed state (channels with test compound bound to them will not recover from inactivation and will not open) before stepping to 0 mV for 50 ms (pulse 2) to measure Na channels that are available to open. Peak current was measured during the step to 0 mV at pulse 1 and 2 to measure tonic and state-dependent inhibition. Compound activities were assessed by dividing post current amplitude (at the end of each five (5) minute compound application) by the vehicle control amplitude and the mean calculated for each compound concentration. Tetracaine was used as a positive control and was tested concurrently with the test compounds. Current amplitudes in excess of 200 pA at the control stage were analyzed. The amplitude of the current was calculated by measuring the difference between the peak inward current on stepping to 0 mV (i.e. peak of the current) and remaining current at the end of the step. The current was assessed in vehicle control conditions and then at the end of each five (5) minute compound application.

Series [1] has as its target T2, human Nav1.5 (late current) (Homo sapiens, UniProt Q14524).
T2 construct: host or cells: HEK293
The series is described as follows: Nav1.5 Late Current Assay (QPatch HT whole-cell patch clamp, 30 nM ATX-II). To be noted: HEK293 cells stably expressing human Nav1.5, pH 7.3, late current with 30 nM ATX-II, read-out: percent inhibition hNav1.5 Late (5 uM). As to the method:
as §1
Onset and steady state induction of late Nav1.5 current was measured using a pulse pattern, repeated every 5 sec, consisting of a hyperpolarizing pulse to −120 mV for a 200 ms duration, depolarization to −15 mV amplitude for a 40 ms duration, followed by step to 40 mV for 200 ms and finally a 100 ms ramp (1.2 V/s) to a holding potential of −80 mV. Each concentration of compound was applied for 5 minutes. The assay was performed at room temperature. After establishing vehicle control condition, all further addition of external solutions contain 30 nM ATX-II to activate late currents. Each concentration of compound was also co-applied with 30 nM ATXII to estimate the Nav1.5 late current inhibition. […]. ATXII was used as the agonist positive control and was tested concurrently with the test compound. Ranolazine was used as the positive control and was tested concurrently with the test compound.
Nav1.5 late current was measured as the total charge flowing through the Nav1.5 channels (area under the curve) 5 ms after the Nav1.5 peak current till the end of the test pulse and as charge at their maxima during the ramp. Individual cell results were normalized to their respective vehicle control and the results were averaged. The sodium current was assessed in 30 nM ATXII as vehicle control conditions and then at the end of each five (5) minute compound application in the presence of 30 nM ATXII. Individual cell result was normalized to 30 nM ATXII vehicle control amplitude and the mean±SEM calculated for each compound concentration.

Another series deals with T3, human Nav1.7 (Homo sapiens, UniProt Q15858).
T3 construct: host or cells: HEK293
The series is described as follows: Two pulse assay protocol, Nav1.7. As to conditions: peak current. On the procedure: as §1, §2

A further series addresses T4, human Nav1.6 (Homo sapiens, UniProt Q9UQD0).
T4 construct: host or cells: HEK293
The series is described as follows: Two pulse assay protocol, Nav1.6. To be noted: 5 uM, peak current. The gist of the method:
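Whole-cell automated patch clamp on HEK293 cells stably expressing each channel; CsF-based internal, pH 7.3 HEPES external, 0.33% DMSO. Every 20 s from −120 mV: 500 ms step to 0 mV (pulse 1, tonic), 10 ms at −120 mV, then 50 ms to 0 mV (pulse 2, state-dependent); peak current versus vehicle after each 5 min application.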

In series [2] the target is T5, human Nav1.5 (peak current) (Homo sapiens, UniProt Q14524).
T5 construct: host or cells: HEK293
The series is described as follows: Nav1.5 Peak Current Assay (QPatch HT whole-cell patch clamp). As to conditions: HEK293 cells stably expressing human Nav1.5, pH 7.3, peak current at step to -15 mV, read-out: percent inhibition hNav1.5 Peak (5 uM). On the procedure:
as §1
Onset and steady state block of peak Nav1.5 current was measured using a pulse pattern, repeated every 5 sec, consisting of a hyperpolarizing pulse to −120 mV for a 200 ms duration, depolarization to -15 mV amplitude for a 40 ms duration, followed by step to 40 mV for 200 ms and finally a 100 ms ramp (1.2 V/s) to a holding potential of −80 mV. Peak current was measured during the step to −15 mV.
Each concentration of compound was applied for 5 minutes. The assay was performed at room temperature and Tetracaine was used concurrently as a positive control. Only current amplitudes in excess of 200 pA at the control stage were analyzed. The amplitude of the sodium current was calculated by measuring the difference between the peak inward current on stepping to −15 mV (i.e. peak of the current) and the leak current. The sodium current was assessed in vehicle control conditions and then at the end of each five (5) minute compound application. Individual cell result was normalized to the vehicle control amplitude and the mean±SEM calculated for each compound concentration.
Background: The patch-clamp technique gives a direct electrical read-out from membranes.

Another series concerns the target T6, human Nav1.1 (Homo sapiens, UniProt P35498).
T6 construct: host or cells: HEK293
The series can be described thus: Two pulse assay protocol, Nav1.1. As to conditions: peak current. As to the method: (§3) In vitro Na+ Current Inhibition Assays were performed by Eurofins Discovery (St Charles, MO). All compound functional activity determinations were determined through electrophysiological analyses of Na+ currents in HEK293 cells expressing a stably transfected Na+ channel (human Nav1.1, 1.2, 1.3, 1.5, 1.6, 1.7, or 1.8). After harvesting with Accutase cells are maintained in serum free medium at room temperature prior to electrophysiological recording utilizing the QPatch HT automated whole-cell patch-clamp platform (Sophion Bioscience, Woburn MA). […]
(§4) Two pulse assay protocol for human Nav1.1, 1.2, 1.3, 1.5, 1.6, 1.7, and 1.8 channels. […] Onset and steady state block of the sodium channel was measured using a pulse pattern, repeated every 20 seconds (s) from a holding potential of −120 mV for 100 ms, and then pulsed to 0 mV for 500 ms to inactivate the Na channels and facilitate inactivated state-dependent binding of the test compounds. […] Peak current was measured during the step to 0 mV at pulse 1 and 2 to measure tonic and state-dependent inhibition. Compound activities were assessed by dividing post current amplitude (at the end of each five (5) minute compound application) by the vehicle control amplitude and the mean calculated for each compound concentration. […] Current amplitudes in excess of 200 pA at the control stage were analyzed. […]

For a further series, the target named is T7, human Nav1.3 (Homo sapiens, UniProt Q9NY46).
T7 construct: host or cells: HEK293
The series is described as follows: Two pulse assay protocol, Nav1.3. As to conditions: peak current. As to the method:
as §3, §4

In the next series the target is T8, human Nav1.2 (Homo sapiens, UniProt Q99250).
T8 construct: host or cells: HEK293
The series is described as follows: Two pulse assay protocol, Nav1.2. To be noted: peak current. As to the method: as §1, §2

[3] abbreviates: pulse 1 (tonic), read-out: percent inhibition hNav1.7, Pulse 1 (5 uM).
The mark [4] stands for this setting: pulse 2 (state-dependent), read-out: percent inhibition hNav1.7, Pulse 2 (5 uM).
[5] abbreviates: pulse 1 (tonic), read-out: percent inhibition hNav1.6, Pulse 1 (5 uM).
The mark [6] stands for this setting: pulse 2 (state-dependent), read-out: percent inhibition hNav1.6, Pulse 2 (5 uM).

Like-named read-outs stand apart in the source and are kept apart here.

T3 sequence (Q15858 whole entry): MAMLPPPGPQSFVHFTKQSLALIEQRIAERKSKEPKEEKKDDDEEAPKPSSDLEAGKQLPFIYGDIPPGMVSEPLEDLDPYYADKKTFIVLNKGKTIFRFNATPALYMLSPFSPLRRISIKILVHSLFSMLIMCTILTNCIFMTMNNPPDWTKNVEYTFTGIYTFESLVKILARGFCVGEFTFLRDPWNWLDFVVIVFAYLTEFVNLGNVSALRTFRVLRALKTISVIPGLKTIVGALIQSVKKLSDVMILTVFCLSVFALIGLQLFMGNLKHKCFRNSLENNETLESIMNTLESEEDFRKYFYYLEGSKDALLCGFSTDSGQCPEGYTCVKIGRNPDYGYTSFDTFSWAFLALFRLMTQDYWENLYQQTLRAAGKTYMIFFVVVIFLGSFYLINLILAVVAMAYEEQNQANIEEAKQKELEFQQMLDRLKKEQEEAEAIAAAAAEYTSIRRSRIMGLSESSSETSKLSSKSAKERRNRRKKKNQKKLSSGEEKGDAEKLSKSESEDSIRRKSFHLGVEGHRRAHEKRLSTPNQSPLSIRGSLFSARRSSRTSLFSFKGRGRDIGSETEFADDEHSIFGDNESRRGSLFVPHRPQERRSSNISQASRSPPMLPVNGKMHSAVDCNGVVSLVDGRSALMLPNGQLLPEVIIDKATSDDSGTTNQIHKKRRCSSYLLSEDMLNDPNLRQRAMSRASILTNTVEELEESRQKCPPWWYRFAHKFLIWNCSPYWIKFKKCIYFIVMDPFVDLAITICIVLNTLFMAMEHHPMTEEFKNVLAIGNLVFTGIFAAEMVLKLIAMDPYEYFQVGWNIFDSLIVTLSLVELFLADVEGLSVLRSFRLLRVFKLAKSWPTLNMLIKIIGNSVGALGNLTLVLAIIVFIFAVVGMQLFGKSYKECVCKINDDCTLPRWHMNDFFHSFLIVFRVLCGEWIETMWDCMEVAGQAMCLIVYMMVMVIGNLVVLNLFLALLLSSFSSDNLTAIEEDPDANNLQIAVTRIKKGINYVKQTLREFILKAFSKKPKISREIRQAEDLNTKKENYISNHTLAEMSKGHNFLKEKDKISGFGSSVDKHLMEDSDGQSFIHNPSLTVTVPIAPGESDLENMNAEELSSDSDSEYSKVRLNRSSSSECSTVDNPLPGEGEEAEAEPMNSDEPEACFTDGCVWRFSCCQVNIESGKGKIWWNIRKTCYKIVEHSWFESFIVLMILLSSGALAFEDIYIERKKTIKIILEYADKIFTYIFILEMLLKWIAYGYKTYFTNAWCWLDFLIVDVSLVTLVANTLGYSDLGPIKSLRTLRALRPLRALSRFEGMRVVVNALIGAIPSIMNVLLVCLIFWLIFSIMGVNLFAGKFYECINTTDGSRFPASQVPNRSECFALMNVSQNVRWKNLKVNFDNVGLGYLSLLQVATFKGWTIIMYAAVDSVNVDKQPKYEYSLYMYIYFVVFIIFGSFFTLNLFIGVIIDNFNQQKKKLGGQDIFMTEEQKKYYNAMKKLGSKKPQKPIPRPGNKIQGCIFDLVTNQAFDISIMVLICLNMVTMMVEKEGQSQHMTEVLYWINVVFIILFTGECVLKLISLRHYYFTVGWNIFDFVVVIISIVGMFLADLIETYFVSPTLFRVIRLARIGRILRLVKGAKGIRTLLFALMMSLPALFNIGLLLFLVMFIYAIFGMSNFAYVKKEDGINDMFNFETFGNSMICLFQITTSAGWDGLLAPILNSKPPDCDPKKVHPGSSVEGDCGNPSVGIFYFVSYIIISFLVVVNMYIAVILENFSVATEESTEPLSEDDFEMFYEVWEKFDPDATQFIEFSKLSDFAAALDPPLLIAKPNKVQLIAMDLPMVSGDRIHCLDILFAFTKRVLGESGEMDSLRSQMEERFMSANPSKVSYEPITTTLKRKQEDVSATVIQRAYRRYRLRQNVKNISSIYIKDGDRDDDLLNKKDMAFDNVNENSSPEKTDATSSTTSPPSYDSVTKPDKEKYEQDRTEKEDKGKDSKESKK
T4 sequence (Q9UQD0 whole entry): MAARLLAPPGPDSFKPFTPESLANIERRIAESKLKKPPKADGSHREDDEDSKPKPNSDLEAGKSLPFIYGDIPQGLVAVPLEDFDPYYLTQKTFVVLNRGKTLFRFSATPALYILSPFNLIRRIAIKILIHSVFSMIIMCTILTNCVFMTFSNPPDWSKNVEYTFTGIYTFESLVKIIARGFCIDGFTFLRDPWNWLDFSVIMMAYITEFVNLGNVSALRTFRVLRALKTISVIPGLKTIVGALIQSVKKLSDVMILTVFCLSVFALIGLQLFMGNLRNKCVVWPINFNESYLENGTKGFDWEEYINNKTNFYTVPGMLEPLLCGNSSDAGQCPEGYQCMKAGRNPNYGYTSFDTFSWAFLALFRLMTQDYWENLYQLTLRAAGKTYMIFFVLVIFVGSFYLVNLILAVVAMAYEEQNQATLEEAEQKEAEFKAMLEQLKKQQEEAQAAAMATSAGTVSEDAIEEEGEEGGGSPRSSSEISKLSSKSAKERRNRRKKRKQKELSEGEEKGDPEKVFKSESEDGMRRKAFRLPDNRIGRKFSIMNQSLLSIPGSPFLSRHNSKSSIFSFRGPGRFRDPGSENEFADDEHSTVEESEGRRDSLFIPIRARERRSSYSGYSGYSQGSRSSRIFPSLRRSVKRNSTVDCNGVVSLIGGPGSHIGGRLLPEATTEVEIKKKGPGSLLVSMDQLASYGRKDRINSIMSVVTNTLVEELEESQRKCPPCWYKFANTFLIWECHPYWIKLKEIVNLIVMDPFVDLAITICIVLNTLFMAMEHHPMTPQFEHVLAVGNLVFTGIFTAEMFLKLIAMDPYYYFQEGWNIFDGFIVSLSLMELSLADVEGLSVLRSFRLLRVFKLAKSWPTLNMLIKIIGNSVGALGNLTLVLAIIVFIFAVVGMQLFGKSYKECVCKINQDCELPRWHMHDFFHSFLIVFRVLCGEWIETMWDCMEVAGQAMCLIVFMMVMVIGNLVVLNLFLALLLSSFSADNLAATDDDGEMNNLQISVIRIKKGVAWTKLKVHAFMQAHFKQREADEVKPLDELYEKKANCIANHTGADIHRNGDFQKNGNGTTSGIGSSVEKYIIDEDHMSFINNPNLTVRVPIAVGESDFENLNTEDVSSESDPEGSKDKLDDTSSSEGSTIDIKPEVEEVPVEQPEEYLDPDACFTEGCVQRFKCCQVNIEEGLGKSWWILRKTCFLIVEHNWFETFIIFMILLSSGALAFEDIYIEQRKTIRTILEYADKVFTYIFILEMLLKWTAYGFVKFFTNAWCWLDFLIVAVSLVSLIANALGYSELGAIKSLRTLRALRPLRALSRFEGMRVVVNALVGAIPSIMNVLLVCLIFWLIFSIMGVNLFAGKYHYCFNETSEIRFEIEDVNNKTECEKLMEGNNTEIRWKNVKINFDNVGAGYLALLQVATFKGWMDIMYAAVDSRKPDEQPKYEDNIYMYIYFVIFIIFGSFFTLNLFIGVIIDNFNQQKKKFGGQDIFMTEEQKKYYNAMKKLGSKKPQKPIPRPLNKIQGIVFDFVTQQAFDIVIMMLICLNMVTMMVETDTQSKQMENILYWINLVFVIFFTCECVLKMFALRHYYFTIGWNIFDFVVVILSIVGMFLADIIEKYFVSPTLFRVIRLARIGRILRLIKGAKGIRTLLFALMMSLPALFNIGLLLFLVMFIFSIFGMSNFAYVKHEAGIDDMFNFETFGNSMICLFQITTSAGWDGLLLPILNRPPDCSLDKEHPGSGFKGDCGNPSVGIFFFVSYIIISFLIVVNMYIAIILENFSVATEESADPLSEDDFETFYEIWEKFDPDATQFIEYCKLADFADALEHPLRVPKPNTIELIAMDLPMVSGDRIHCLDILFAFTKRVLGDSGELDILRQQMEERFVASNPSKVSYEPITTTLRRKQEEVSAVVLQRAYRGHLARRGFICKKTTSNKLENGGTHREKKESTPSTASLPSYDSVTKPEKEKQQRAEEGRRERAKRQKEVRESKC

As a reminder, the inhibition is the percentage by which the read-out fell short of the control. For the compound `Cc1cc2ncc(-c3ccc(OC(C)(C)C)cc3)n2cc1-c1ccc(OC(C)C)cc1` [Example C55, 3-(4-(tert-butoxy)phenyl)-6-(4-isopropoxyphenyl)-7-methylimidazo[1,2-a]pyridine], the inhibition at 5 µM at human Nav1.8 (pulse 1 (tonic), read-out: percent inhibition hNav1.8, Pulse 1 (5 uM)) is less than 50%; on human Nav1.8 (pulse 2 (state-dependent), read-out: percent inhibition hNav1.8, Pulse 2 (5 uM)) it was less than 50%; at human Nav1.7 (setting [3]), less than 50%; at human Nav1.7 (setting [4]), 50 to 90%; on human Nav1.6 (setting [5]), less than 50%; on human Nav1.6 (setting [6]), more than 90%. Moreover, the inhibition at 5 min, 5 uM in series [1] was in the range of 50 to 90%. Also, in series [2], the inhibition at 5 min, 5 µM is less than 50%.
Consider `CC(C)Oc1ccc(-c2cnc3ccc(-c4ccc(OC(C)C)nc4)cn23)cc1` [Example C12, 2-(propan-2-yloxy)-5-{3-[4-(propan-2-yloxy)phenyl]imidazo[1,2-a]pyridin-6-yl}pyridine], for which, in series [1], the inhibition at 5 min, 5 uM was more than 90%. The inhibition at 5 µM on human Nav1.1 (pulse 1 (tonic), read-out: percent inhibition hNav1.1, Pulse 1 (5 uM)) is less than 50%; at human Nav1.1 (pulse 2 (state-dependent), read-out: percent inhibition hNav1.1, Pulse 2 (5 uM)) it was more than 90%; on human Nav1.7 (setting [3]), less than 50%; at human Nav1.7 (setting [4]) it was more than 90%; on human Nav1.6 (setting [5]), less than 50%; on human Nav1.6 (setting [6]) it was more than 90%. The inhibition at 5 µM is less than 50% on human Nav1.3 (pulse 1 (tonic), read-out: percent inhibition hNav1.3, Pulse 1 (5 uM)); more than 90% at human Nav1.3 (pulse 2 (state-dependent), read-out: percent inhibition hNav1.3, Pulse 2 (5 uM)); less than 50% on human Nav1.2 (pulse 1 (tonic), read-out: percent inhibition hNav1.2, Pulse 1 (5 uM)); more than 90% on human Nav1.2 (pulse 2 (state-dependent), read-out: percent inhibition hNav1.2, Pulse 2 (5 uM)). Further, the inhibition at 5 min, 5 µM in series [2] is 50 to 90%.

(Values after patent publication US20230303569A1, “HETEROCYCLIC COMPOUNDS AS THERAPEUTIC AGENTS” (Arisan Therapeutics Inc., priority 2021, published 2023).)
